According to patent publication US9937235B2, “Lipidated peptides as anti-obesity agents” (USTAV ORGANICKE CHEMIE A BIOCHEMIE AKADEMIE VED CR, V.V.I, priority 2012, dated 2018):
Where a SMILES comes first, the peptide text is derived from it. [ ]: non-standard residue; d: D form. The star is where a group is joined. 1Nal = N[C@@H](Cc1cccc2ccccc12)C(=O)O; Lauroyl = CCCCCCCCCCCC(=O)*; Nle = CCCC[C@H](N)C(=O)O; Octanoyl = CCCCCCCC(=O)*; Dap = NC[C@H](N)C(=O)O

Columns and labels:
[1] = test system: MAPK/ERK1/2 signaling pathway in RC-4B/C cells; experiment: MAPK/ERK1/2 signaling in RC-4B/C cells (Western blot); assay type: cell-based, rat; details: 10^−6 mol·l^−1, 5 minute incubation
Description: RC-4B/C cells, which were used to determine if lipidated PrRP20 analogs are able to initiate the MAPK/ERK1/2 signaling pathway, were grown in 6-well plates up to the optimal density of […]. Seventeen hours before sample harvest, the growth medium was replaced by a serum-free medium lacking epidermal growth factor (EGF). The respective lipidated PrRP analog was added to each well in the final concentration of 10^−6 mol·l^−1. After a 5 minute incubation at 37° C., the plate was placed on ice and each well was rinsed three times with PBS pH 7.4 (137 mmol·l^−1 NaCl, 2.7 mmol·l^−1 KCl, 8 mmol·l^−1 Na2HPO4.2H2O a 1.76 mmol·l^−1 KH2PO4) and cooled to 4° C. […] Samples were collected in at least three independent experiments.
To determine if the lipidated PrRP20 analogs initiated the MAPK/ERK1/2 signaling pathway, Western blot analysis was used. Electrophoresis was performed on 5%/12% polyacrylamide gel in the presence of SDS (SDS-PAGE) on the instrument MiniProtean 3 (BioRad, Herkules, Calif., USA). Samples that were loaded on the gel were first disintegrated by ultrasound, then heated at 100° C. for 2 minutes, and centrifuged for 5 minutes at 500×g at room temperature. […] Electrophoresis was performed at a constant voltage of 100 V for 10 minutes, or for 60 minutes at 150 V.
To show the presence of phosphorylated proteins in the samples, the proteins from the SDS-PAGE gel were transferred to the Immobilon™-P PVDF (polyvinylidene difluoride) membrane (Sigma-Aldrich, USA). The transfer was performed in blotting buffer at pH 8.3 (25 mmol·l^−1 Tris, 192 mmol·l^−1 glycine and 20% methanol) for 20 hours at 4° C. at a constant voltage of 30 V.
After the protein transfer to the PVDF membrane, the membranes were washed for 5 minutes in TBS washing buffer (20 mmol·l^−1 Tris, 140 mmol·l^−1 NaCl and 0.1% Tween-20) and then incubated for 1 hour in blocking buffer (TBS with 5% non-fat milk powder and 5 mmol·l^−1 Na3VO4 and 50 mmol·l^−1 NaF) at room temperature. Further, the membranes were washed three times for 5 minutes using the TBS washing buffer. The membranes were then incubated with the primary antibody against phospho-p44/42 MAPK(Thr202/Tyr204) (Cell Signaling Technology, Beverly, USA) which was diluted in blocking buffer at 1:1000. After the next three washes with the TBS washing buffer for 5 minutes, the membranes were incubated for 1 hour with rabbit secondary antibody labeled with peroxidase (Sigma, St. Louis, USA) which was diluted in blocking buffer at 1:12,000.
The membranes were then washed three times in TBS washing buffer for 5 minutes and then the solution Femto (Pierce SuperSignal, Thermo Fisher Scientific, Rockford, Ill., USA) was applied. The induced chemiluminiscence was detected by a CCD camera (LAS 3000, Fuji Photo Film GmBH, Düsseldorf, Germany).
To assess the initiation of signaling pathways, a densitometric analysis using the program Quantity One (BioRad, Hercules, Calif., USA) was used. For statistical evaluation of the statistically significant response of the cellular signaling, one-way ANOVA with subsequent Dunnett post-hoc test was used. Data was statistically significant at P<0.05.

[2] = target: T1, rat PrRP receptor (GPR10) in RC-4B/C cells (Rattus norvegicus, UniProt Q64121); experiment: Competitive binding to rat pituitary RC-4B/C cells; details: ^125I-rat PrRP31, RC-4B/C cells
T1 construct: host or cells: RC-4B/C rat pituitary cell line
T1 sequence (Q64121 1-370): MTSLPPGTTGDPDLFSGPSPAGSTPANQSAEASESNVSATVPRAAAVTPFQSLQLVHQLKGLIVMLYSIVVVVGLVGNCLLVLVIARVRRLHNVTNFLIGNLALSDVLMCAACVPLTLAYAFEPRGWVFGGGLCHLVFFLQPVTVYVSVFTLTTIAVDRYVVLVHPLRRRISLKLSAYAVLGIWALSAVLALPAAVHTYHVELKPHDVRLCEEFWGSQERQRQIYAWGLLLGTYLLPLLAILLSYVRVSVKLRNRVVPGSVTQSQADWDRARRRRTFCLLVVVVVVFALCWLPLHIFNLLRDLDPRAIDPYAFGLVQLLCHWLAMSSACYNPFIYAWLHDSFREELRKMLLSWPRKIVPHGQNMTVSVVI
Description: Competitive binding experiments were performed according to Motulsky and Neubig (Motulsky, A., et al., “Analyzing radioligand binding data,” Curr Protoc Neurosci, Chapter 7, Unit 7.5, 2002). The rat pituitary cell line RC-4B/C (ATCC, Manassas, USA) was grown on 24-well plates which had their bottom coated with polyethyleneimine. The cells were grown to the optimal density of 300-450 thousand per well. […] Plates were incubated for 60 minutes at room temperature. After incubation, the cells were solubilized in 0.1 mol/l solution of NaOH and the radioactivity bound to the cells was counted using a γ-counter. The experiments were performed in duplicate and repeated at least three times. For evaluation of competitive binding experiments, the program Graph Pad Prism Software (San Diego, Calif., USA) was used. A method of nonlinear regression assuming one-site binding was used.

fasted C57BL/6 mice = experiment: Food intake in fasted mice after SC administration; assay type: in vivo, mouse; details: SC administration; for % control: food intake vs saline
Procedure, shortened: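 Male C57BL/6 mice, food-deprived 17 h, received saline, PrRP or lipidated analogs either SC at 1-10 mg/kg or ICV into the third ventricle at 4 nmol/mouse.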

CCCCCCCC(=O)NC[C@H](N)C(=O)N[C@@H](CCCNC(=N)N)C(=O)N[C@@H](C)C(=O)N[C@@H](Cc1c[nH]cn1)C(=O)N[C@@H](CCC(N)=O)C(=O)N[C@@H](Cc1c[nH]cn1)C(=O)N[C@@H](CO)C(=O)N[C@@H](CCCC)C(=O)N[C@@H](CCC(=O)O)C(=O)N[C@H](C(=O)N[C@@H](CCCNC(=N)N)C(=O)N[C@H](C(=O)N1CCC[C@H]1C(=O)N[C@@H](CC(=O)O)C(=O)N[C@H](C(=O)N[C@@H](CC(N)=O)C(=O)N1CCC[C@H]1C(=O)N[C@@H](C)C(=O)N[C@@H](Cc1c[nH]c2ccccc12)C(=O)N[C@@H](Cc1ccc(O)cc1)C(=O)N[C@H](C(=O)NCC(=O)N[C@@H](CCCNC(=N)N)C(=O)NCC(=O)N[C@H](C(=O)N[C@@H](CCCNC(=N)N)C(=O)N1CCC[C@H]1C(=O)N[C@H](C(=O)NCC(=O)N[C@@H](CCCNC(=N)N)C(=O)N[C@@H](Cc1ccccc1)C(N)=O)C(C)C)[C@@H](C)CC)[C@@H](C)O)[C@@H](C)CC)[C@@H](C)O)[C@@H](C)O [Analog 2] (H-[Dap](Octanoyl)RAHQHS[Nle]ETRTPDINPAWYTGRGIRPVGRF-NH2)
ERK signaling [1]: agonist | % of PrRP31 binding [2]: 172%

CCCCCCCCCCCC(=O)NC[C@H](N)C(=O)N[C@@H](CCCNC(=N)N)C(=O)N[C@@H](C)C(=O)N[C@@H](Cc1c[nH]cn1)C(=O)N[C@@H](CCC(N)=O)C(=O)N[C@@H](Cc1c[nH]cn1)C(=O)N[C@@H](CO)C(=O)N[C@@H](CCCC)C(=O)N[C@@H](CCC(=O)O)C(=O)N[C@H](C(=O)N[C@@H](CCCNC(=N)N)C(=O)N[C@H](C(=O)N1CCC[C@H]1C(=O)N[C@@H](CC(=O)O)C(=O)N[C@H](C(=O)N[C@@H](CC(N)=O)C(=O)N1CCC[C@H]1C(=O)N[C@@H](C)C(=O)N[C@@H](Cc1c[nH]c2ccccc12)C(=O)N[C@@H](Cc1ccc(O)cc1)C(=O)N[C@H](C(=O)NCC(=O)N[C@@H](CCCNC(=N)N)C(=O)NCC(=O)N[C@H](C(=O)N[C@@H](CCCNC(=N)N)C(=O)N1CCC[C@H]1C(=O)N[C@H](C(=O)NCC(=O)N[C@@H](CCCNC(=N)N)C(=O)N[C@@H](Cc1ccccc1)C(N)=O)C(C)C)[C@@H](C)CC)[C@@H](C)O)[C@@H](C)CC)[C@@H](C)O)[C@@H](C)O [Analog 3] (H-[Dap](Lauroyl)RAHQHS[Nle]ETRTPDINPAWYTGRGIRPVGRF-NH2)
ERK signaling [1]: agonist | % of PrRP31 binding [2]: 440% | food intake (fasted C57BL/6 mice; 45 minutes, 5 mg/kg): 0.12 g | % control (fasted C57BL/6 mice; 45 minutes, 5 mg/kg): 50% | food intake (fasted C57BL/6 mice; 300 minutes, 5 mg/kg): 0.61 g | % control (fasted C57BL/6 mice; 300 minutes, 5 mg/kg): 60%

CCCC[C@H](NC(=O)[C@H](CO)NC(=O)[C@H](Cc1c[nH]cn1)NC(=O)[C@H](CCC(N)=O)NC(=O)[C@H](Cc1c[nH]cn1)NC(=O)[C@H](C)NC(=O)[C@H](CCCNC(=N)N)NC(=O)[C@@H](N)CN)C(=O)N[C@@H](CCC(=O)O)C(=O)N[C@H](C(=O)N[C@@H](CCCNC(=N)N)C(=O)N[C@H](C(=O)N1CCC[C@H]1C(=O)N[C@@H](CC(=O)O)C(=O)N[C@H](C(=O)N[C@@H](CC(N)=O)C(=O)N1CCC[C@H]1C(=O)N[C@@H](C)C(=O)N[C@@H](Cc1c[nH]c2ccccc12)C(=O)N[C@@H](Cc1ccc(O)cc1)C(=O)N[C@H](C(=O)NCC(=O)N[C@@H](CCCNC(=N)N)C(=O)NCC(=O)N[C@H](C(=O)N[C@@H](CCCNC(=N)N)C(=O)N1CCC[C@H]1C(=O)N[C@H](C(=O)NCC(=O)N[C@@H](CCCNC(=N)N)C(=O)N[C@@H](Cc1cccc2ccccc12)C(N)=O)C(C)C)[C@@H](C)CC)[C@@H](C)O)[C@@H](C)CC)[C@@H](C)O)[C@@H](C)O [Analog 7] (H-[Dap]RAHQHS[Nle]ETRTPDINPAWYTGRGIRPVGR[1Nal]-NH2)
ERK signaling [1]: agonist | % of PrRP31 binding [2]: 8% | food intake (fasted C57BL/6 mice; 45 minutes, 10 mg/kg): 0.16 g | % control (fasted C57BL/6 mice; 45 minutes, 10 mg/kg): 49% | food intake (fasted C57BL/6 mice; 300 minutes, 10 mg/kg): 0.88 g | % control (fasted C57BL/6 mice; 300 minutes, 10 mg/kg): 81%
